Holding throughout (experiment): inhibition of tumour cell growth, NCI panel, 48 h
For assay [1], the system named is CCRF-CEM leukemia.
Assay [2] relates to HL-60(TB) leukemia.
The test system of assay [3] is HCT-15 colon.
The test system of assay [4] is UACC-62 melanoma.
For assay [5], the system named is PC-3 prostate.
Assay [6] deals with K-562 leukemia.
For assay [7], the system named is SF-539 CNS.
Assay [8] deals with SK-MEL-5 melanoma.
The test system of assay [9] is MDA-N.
Assay [10] deals with HCT-116 colon.
The subject of assay [11] is HOP-62 NSCLC.
For assay [12], the system named is SK-MEL-2 melanoma.
For assay [13], the system named is IGROV1 ovarian.
For assay [14], the system named is MDA-MB-231 breast.
In assay [15] the test system is A549 NSCLC.
Assay [16] relates to HOP-92 NSCLC.
For assay [17], the system named is CAKI-1 renal.
The subject of assay [18] is BT-549 breast.
The test system of assay [19] is TK-10 renal.

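Compound exposure: 48 hours, 5 concentrations, 96-well plates. TGI: total growth inhibition.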 Some results are limits rather than exact numbers.

On to `Cc1cc(C)c2c(=O)cc(-c3ccccc3)[nH]c2c1`, for which the TGI in [1] is above 100 µM; in assay [2], 4.71 µM; in [3], above 67.1 µM; in assay [4] it was 28.7 µM; in [5], above 93.2 µM; in assay [6] it was above 100 µM. For the same molecule, the TGI in assay [7] came out at 8.11 µM; in [8], 30.6 µM; in assay [9], 3.17 µM; in [10] it was 15.8 µM; in assay [11] it was 23.7 µM; in [12], 55.9 µM. Moreover, the TGI is 35.4 µM in assay [13]; 39.7 µM in assay [14]; 29.1 µM in [15]; 59.5 µM in assay [16]; above 47.2 µM in assay [17]; 54.2 µM in assay [18]. The same molecule displayed a TGI in [19] of 22.8 µM.

On to `CCN(CC)CCOc1ccc(N2Cc3cc(OC)c(OC)cc3C2=O)cc1`, for which the TGI in assay [1], in [2], in assay [3], in [4], in [5] and in assay [6] was above 100 µM in each case. Moreover, the TGI in assay [7], in [8], in [9], in assay [10], in [11] and in assay [12] was above 100 µM throughout. In addition, the TGI in assay [13], in assay [14], in assay [15], in assay [16], in assay [17] and in assay [18] was above 100 µM throughout. Also, the TGI in assay [19] was above 100 µM.

Turning to `Oc1c(Nc2ccccc2)cc2c3c1N=NC=3CCN=2`, the TGI in assay [1] was 93.9 µM; in assay [2] it was 53.2 µM; in assay [3] it was above 100 µM; in [4], 49.2 µM; in assay [5], above 100 µM; in [6], above 100 µM. Also, the TGI in [7] was above 100 µM; in assay [8] it was 33.1 µM; in assay [9], 31.7 µM; in assay [10], 44.4 µM; in [11] it was above 100 µM; in [12], above 100 µM. Besides, the TGI in assay [13], in assay [14], in assay [15], in [16], in assay [17] and in [18] was above 100 µM throughout. Moreover, the TGI in assay [19] is above 100 µM.

`Cc1ccc(S(=O)(=O)NN=C2C(C)CC(C(C)(C)C)CC2C)cc1` (stereo not drawn): the TGI in [1] is 41.8 µM; in assay [2], 52.7 µM; in assay [3], 34.4 µM; in [4], 93.2 µM; in assay [5], 37.9 µM; in assay [6] it was 44.1 µM. For the same molecule, the TGI in [7] is above 100 µM; in [8] it was 31.3 µM; in assay [9], 40.9 µM; in [10] it was 34.1 µM; in assay [11] it was 31.6 µM; in [12], 32.9 µM. Further, the TGI is above 100 µM in [13]; 85.9 µM in assay [14]; 32.7 µM in assay [15]; 30.1 µM in [16]; 31.6 µM in [17]; 35.5 µM in assay [18]. The TGI in assay [19] amounted to 65 µM.

As for `CN(NC(=O)c1ccc(Cl)cc1)C1=NCCCCN1`, the TGI in assay [1], in assay [2], in [3], in assay [4], in [5] and in assay [6] was above 100 µM throughout. The TGI in [7], in [8], in assay [9], in [10], in assay [11] and in [12] was above 100 µM in each case. For the same molecule, the TGI in [13], in [14], in [15], in assay [16], in assay [17] and in assay [18] was above 100 µM in each case. In addition, in assay [19], the TGI was above 100 µM.

Consider `COc1ccc2cc(NC(=O)Nn3cnnc3)ccc2c1`, for which the TGI in assay [1], in assay [2], in [3], in [4], in assay [5] and in assay [6] was above 100 µM throughout. The TGI in [7], in assay [8], in assay [9], in assay [10], in [11] and in assay [12] was above 100 µM in each case. Besides, the TGI in assay [13], in assay [14], in assay [15], in assay [16], in assay [17] and in assay [18] was above 100 µM in each case. Further, the TGI in assay [19] is above 100 µM.

`CCCCCCCCOP(=O)(O)OP(=O)(O)OCC1OC(n2ccc(N)nc2=O)C(O)C1O` (stereo not drawn): the TGI in assay [1], in [2], in assay [3], in [4], in [5] and in assay [6] was above 100 µM each time. In addition, the TGI in [7], in assay [8], in assay [9], in [10], in [11] and in assay [12] was above 100 µM throughout. Further, the TGI in [13], in [14], in [15], in assay [16], in [17] and in [18] was above 100 µM each time. This molecule gave a TGI in [19] above 100 µM.

For `Cc1nn(C(=O)c2ccc(Cl)cc2)c2c1C(c1ccccc1)SC(N)=N2` (stereo not drawn), the TGI in assay [1], in assay [2], in assay [3], in assay [4], in [5] and in assay [6] was above 10 µM in each case. Moreover, the TGI in assay [7], in assay [8], in assay [9], in [10], in assay [11] and in [12] was above 10 µM in each case. Besides, the TGI in assay [13], in [14], in assay [15], in [16], in assay [17] and in [18] was above 10 µM each time. In assay [19], this molecule returned a TGI above 10 µM.

In the case of `CC(=O)OCC(OC(C)=O)C(OC(C)=O)C(/C=N\Nc1nc2ccccc2c(=O)[nH]1)OC(C)=O` (stereo not drawn), the TGI in [1], in assay [2], in assay [3], in assay [4], in assay [5] and in assay [6] was above 100 µM throughout. Further, the TGI in assay [7], in [8], in [9], in assay [10], in assay [11] and in assay [12] was above 100 µM throughout. Further, the TGI in assay [13], in [14], in assay [15], in assay [16], in assay [17] and in assay [18] was above 100 µM throughout. Moreover, in assay [19], the TGI was above 100 µM.

In the case of `O=c1cc(CN2CCCCC2)[nH]c2c1ccc1nc(CN3CCCCC3)cc(=O)n12`, the TGI in assay [1], in assay [2], in assay [3], in assay [4], in assay [5] and in assay [6] was above 100 µM in each case. In addition, the TGI in assay [7], in [8], in assay [9], in assay [10], in assay [11] and in assay [12] was above 100 µM each time. For the same molecule, the TGI in assay [13], in assay [14], in [15], in assay [16], in assay [17] and in [18] was above 100 µM each time. In assay [19], this molecule had a TGI above 100 µM.

`Brc1ccc(N=C/C=C(\Nc2ccc(Br)cc2)C23CC4CC(CC(C4)C2)C3)cc1`: the TGI in [1] was 4.5 µM; in assay [2] it was 23.3 µM; in [3], above 46.6 µM; in assay [4], 15 µM; in [5], 41 µM; in [6], above 67 µM. In addition, the TGI came out at 51.8 µM in [7]; 26.6 µM in assay [8]; 34.9 µM in assay [9]; 23.8 µM in assay [10]; 43.6 µM in [11]; 28.3 µM in assay [12]. Also, the TGI is 28 µM in assay [13]; 31.9 µM in assay [14]; above 100 µM in assay [15]; 31.5 µM in assay [16]; 25.4 µM in assay [17]; 49.7 µM in [18]. The TGI in assay [19] was 28.6 µM.

On to `Cc1ccc([N+](=O)[O-])cc1S(=O)(=O)Nc1ccc(C(=O)/C=C/c2ccccc2)cc1`, for which the TGI in [1] was determined as 69.9 µM; in assay [2] it was 65.1 µM; in [3], 48.7 µM; in assay [4] it was 28.1 µM; in assay [5] it was 30.6 µM; in [6] it was 29.7 µM. Also, the TGI in assay [7] is above 100 µM; in [8], 32.1 µM; in assay [9] it was 42.8 µM; in assay [10], 29.3 µM; in [11], 34.5 µM; in assay [12], 38.2 µM. For the same molecule, the TGI in assay [13] was 39.6 µM; in assay [14] it was 32.3 µM; in assay [15], above 100 µM; in [16], 41.1 µM; in assay [17], 55.4 µM; in assay [18], 33.7 µM. The TGI in assay [19] is above 100 µM.
